Measurements from PMC5168863, “Synthesis and functionalization of protease-activated nanoparticles with tissue plasminogen activator peptides as targeting moiety and diagnostic tool for pancreatic cancer” (Journal of Nanobiotechnology, 2016).
Residues, ends and D or L forms follow the SMILES beside them. *: point of attachment. 5FAM = O=C1OC2(c3ccc(O)cc3Oc3cc(O)ccc32)c2ccc(C(=O)*)cc21

Assays:
Gal-1 = Gal-1 (Homo sapiens, UniProt P09382); experiment: Microscale thermophoresis (MST) binding of t-PA peptides to galectin-1; conditions: for Kd: MST, human galectin; for Fold diff.: versus rh t-PA protein
Gal-1, sequence (P09382 whole entry): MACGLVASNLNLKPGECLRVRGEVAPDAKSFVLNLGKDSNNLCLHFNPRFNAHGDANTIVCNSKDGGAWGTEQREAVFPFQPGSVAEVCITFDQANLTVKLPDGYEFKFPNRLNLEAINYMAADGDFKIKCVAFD
Protocol: (§1) To investigate the binding efficiency of the short t-PA-ligands [10 to 29-AA-long peptides fluorescein or rhodamine-labelled] to galectin-1, we applied the microscale thermophoresis (MST) technology which allows quantitative analysis of protein interactions in solutions. By using MST, individual affinity constants between the different t-PA peptides and galectins (Gal-1, -3, -4) previously characterized to be over-expressed in PDAC were determined and compared to the recombinant human t-PA protein (rh t-PA) as presented in Table 2.
(§2) In order to investigate the binding properties of the modified t-PA-peptides [10-29 AA-long fluorescence-labeled peptides] as ligands to galectins, the microscale thermophoresis (MST) (Monolith NT.115 MST instrument, NanoTemper Technologies GmbH, Munich Germany) technology was employed. MST allows a quantitative analysis of protein interactions in solution and is based on the directed motion of molecules in temperature gradients generated locally by an infrared laser, whereas the molecular mobility in the temperature gradient is analyzed via fluorescence. MST is highly sensitive to all types of binding-induced changes of molecular properties like protein size, charge, hydration shell or conformation. The binding modes such as dimerization, cooperativity, and competition are quantifiable and adaptable to diverse requirements of different biomolecules. Therefore, MST turned out as an ideal method for the interaction studies of t-PA and t-PA-derived peptides with galectins.

Gal-3 = Gal-3 (Homo sapiens, UniProt P17931); experiment: Microscale thermophoresis (MST) binding of t-PA peptides to galectin-3; conditions: for Kd: MST, human galectin; for Fold diff.: versus rh t-PA protein
Gal-3, sequence (P17931 whole entry): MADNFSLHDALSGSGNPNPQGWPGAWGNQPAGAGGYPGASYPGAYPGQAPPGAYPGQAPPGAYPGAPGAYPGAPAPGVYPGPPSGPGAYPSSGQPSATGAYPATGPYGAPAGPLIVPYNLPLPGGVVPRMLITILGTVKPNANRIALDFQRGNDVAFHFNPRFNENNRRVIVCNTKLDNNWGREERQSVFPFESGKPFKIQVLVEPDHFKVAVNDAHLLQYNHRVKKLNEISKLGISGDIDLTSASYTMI
Protocol: as §1, §2

Gal-4 = biological target: T1, Gal-4 (Homo sapiens, UniProt P56470); experiment: Microscale thermophoresis (MST) binding of t-PA peptides to galectin-4; conditions: for Kd: MST, human galectin; for Fold diff.: versus rh t-PA protein
T1 sequence (P56470 1-323): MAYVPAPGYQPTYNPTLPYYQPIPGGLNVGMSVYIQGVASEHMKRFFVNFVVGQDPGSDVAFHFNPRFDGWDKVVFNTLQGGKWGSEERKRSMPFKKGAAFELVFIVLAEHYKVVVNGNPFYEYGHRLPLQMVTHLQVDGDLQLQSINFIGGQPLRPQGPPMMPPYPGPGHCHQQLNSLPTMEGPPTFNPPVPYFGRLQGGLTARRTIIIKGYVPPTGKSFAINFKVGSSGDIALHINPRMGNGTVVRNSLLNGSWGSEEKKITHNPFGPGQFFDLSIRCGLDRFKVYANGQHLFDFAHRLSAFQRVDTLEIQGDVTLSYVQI
Protocol: as §1, §2

Panc-1 = experiment: Flow cytometry, binding of peptide/NPs to Panc-1 cells; format: cell-based, human
Protocol: (§3) With the first flow cytometry experiments we analyzed the nanoparticle-core (Core CAN-maghemite (Ce-Fe2O3) and the t-PA-peptide1-lactose (t-PApep1lac) linked to the core. This was to determine whether the fluorescein-labelled t-PA-peptides, covalently linked to NPs, bind to Panc-1 and Su86.86 cells and if the cells are able to internalize the NPs. In a parallel set of experiments the binding of the t-PA-peptide alone (without linkage to NPs) to the pancreatic cancer cells was assessed. For the experimental set-up a concentration of t-PA peptide of 1.25 µM was applied and the cells were exposed to the NPs with and without peptides for different incubation periods of 2, 6, 12 and 24 h.
(§4) Flow cytometry (fluorescent-activated cell sorting/FACS) analysis was used to determine the binding of fluorescein-labeled t-PA-pep1Lac and t-PApep1-vectorized nanoparticles (CAN-Mag@PNPs-tPApep1Lac and CAN-Mag@PNPs-PEG-REGAcp-PEG/tPA-pep1Lac) on the surfaces of Panc-1 and SU.86.86 cells. Additional FACS analyses were performed to monitor concentration and time-dependent binding efficiency and changes caused by addition of competitors (galactose, lactose) or in the presence of active MMP-9, which cleaves the REGAcp sequence. Deshielding of CAN-Mag@PNPs-PEG-REGAcp-PEG/tPA-pep1Lac was carried out by pre-activated MMP-9 (20 µM proMMP-9 and 200 nM of catalytic domain cdMMP-3 in 100 mM Tris, 100 mM NaCl, 10 mM CaCl2, pH 7.4 for 2 h at 37 °C). The active MMP-9 (50 µl, 10 µM) was incubated in the presence of 450 µl NPs and subsequently added to cells. Nanoparticle-exposed cell monolayers (of 2 × 10^5 cells/2 ml medium in 6 well plates), with or without treatment, were harvested 2, 12, 24 h post-exposure using 1 mM EDTA–phosphate-buffered saline (PBS) detachment buffer, (Miltenyi GmbH, Bergisch Gladbach, Germany), washed 3 times in PBS, incubated for 45 min on ice and subsequently subjected to analysis in a BD™ LSR II flow cytometer and Software Program: BD FACSDiva 7.0 (Becton–Dickinson,)

Su.86.86 = experiment: Flow cytometry, binding of peptide/NPs to Su.86.86 cells; format: cell-based, human
Protocol: as §3, §4

Kd (Gal-1; N-Fluo. labelled ligand) [µM]	Fold diff. (Gal-1; N-Fluo. labelled ligand)	Kd (Gal-3; N-Fluo. labelled ligand) [µM]	Fold diff. (Gal-3; N-Fluo. labelled ligand)	Kd (Gal-4; N-Fluo. labelled ligand) [µM]	Fold diff. (Gal-4; N-Fluo. labelled ligand)	Compound	Kd (Gal-1; C-Fluo. labelled ligand) [µM]	Fold diff. (Gal-1; C-Fluo. labelled ligand)	Kd (Gal-3; C-Fluo. labelled ligand) [µM]	Fold diff. (Gal-3; C-Fluo. labelled ligand)	Kd (Gal-4; C-Fluo. labelled ligand) [µM]	Fold diff. (Gal-4; C-Fluo. labelled ligand)	Percentage of cells labeled with nanoparticles (Panc-1; Panc-1, 2 h incubation) [%]	Percentage of cells labeled with nanoparticles (Panc-1; Panc-1, 12 h incubation) [%]	Percentage of cells labeled with nanoparticles (Panc-1; Panc-1, 24 h incubation) [%]	Percentage of cells labeled with nanoparticles (Su.86.86; Su.86.86, 2 h incubation) [%]	Percentage of cells labeled with nanoparticles (Su.86.86; Su.86.86, 12 h incubation) [%]	Percentage of cells labeled with nanoparticles (Su.86.86; Su.86.86, 24 h incubation) [%]
141	−28.7	272	−35.4	34	1.5	CC(C)C[C@H](NC(=O)[C@H](C)NC(=O)[C@H](CO)NC(=O)[C@H](CO)NC(=O)[C@H](CC(N)=O)NC(=O)[C@H](Cc1c[nH]c2ccccc12)NC(=O)[C@H](CC(N)=O)NC(=O)[C@@H](NC(=O)[C@H](CS)NC(=O)[C@H](CCC(=O)O)NC(=O)[C@H](C)NC(=O)CNC(=O)[C@H](CO)NC(=O)[C@H](CCC(=O)O)NC(=O)[C@H](C)NC(=O)[C@@H](NC(=O)[C@H](CO)NC(=O)[C@H](Cc1c[nH]c2ccccc12)NC(=O)[C@@H](NC(=O)CNC(=O)c1ccc2c(c1)C(=O)OC21c2ccc(O)cc2Oc2cc(O)ccc21)[C@@H](C)O)[C@@H](C)O)[C@@H](C)O)C(=O)N[C@@H](C)C(=O)N[C@@H](CCC(N)=O)C(=O)N[C@@H](CCCCN)C(=O)N1CCC[C@H]1C(=O)N[C@@H](Cc1ccc(O)cc1)C(=O)N[C@@H](CO)C(=O)NCC(=O)N[C@@H](CCCNC(=N)N)C(=O)O [t-PA-pep-1] (5FAM-GTWSTAESGAECTNWNSSALAQKPYSGR-OH)												
4.92	1	7.68	1	51.2	1	rh t-PA protein: recombinant human t-PA protein [reference compound]												

Compound	Kd (Gal-1; N-Fluo. labelled ligand) [µM]	Fold diff. (Gal-1; N-Fluo. labelled ligand)	Kd (Gal-3; N-Fluo. labelled ligand) [µM]	Fold diff. (Gal-3; N-Fluo. labelled ligand)	Kd (Gal-4; N-Fluo. labelled ligand) [µM]	Fold diff. (Gal-4; N-Fluo. labelled ligand)	Kd (Gal-1; C-Fluo. labelled ligand) [µM]	Fold diff. (Gal-1; C-Fluo. labelled ligand)	Kd (Gal-3; C-Fluo. labelled ligand) [µM]	Fold diff. (Gal-3; C-Fluo. labelled ligand)	Kd (Gal-4; C-Fluo. labelled ligand) [µM]	Fold diff. (Gal-4; C-Fluo. labelled ligand)	Percentage of cells labeled with nanoparticles (Panc-1; Panc-1, 2 h incubation) [%]	Percentage of cells labeled with nanoparticles (Panc-1; Panc-1, 12 h incubation) [%]	Percentage of cells labeled with nanoparticles (Panc-1; Panc-1, 24 h incubation) [%]	Percentage of cells labeled with nanoparticles (Su.86.86; Su.86.86, 2 h incubation) [%]	Percentage of cells labeled with nanoparticles (Su.86.86; Su.86.86, 12 h incubation) [%]	Percentage of cells labeled with nanoparticles (Su.86.86; Su.86.86, 24 h incubation) [%]
CC(C)C[C@H](NC(=O)[C@H](C)NC(=O)[C@H](CO)NC(=O)[C@H](CO)NC(=O)[C@H](CO[C@@H]1O[C@H](CO)[C@@H](O[C@@H]2O[C@H](CO)[C@H](O)[C@H](O)[C@H]2O)[C@H](O)[C@H]1O)NC(=O)[C@H](Cc1c[nH]c2ccccc12)NC(=O)[C@H](CC(N)=O)NC(=O)[C@@H](NC(=O)[C@H](CS)NC(=O)[C@H](CCC(=O)O)NC(=O)[C@H](C)NC(=O)CNC(=O)[C@H](CO)NC(=O)[C@H](CCC(=O)O)NC(=O)[C@H](C)NC(=O)[C@@H](NC(=O)[C@H](CO)NC(=O)[C@H](Cc1c[nH]c2ccccc12)NC(=O)[C@@H](NC(=O)CN)[C@@H](C)O)[C@@H](C)O)[C@@H](C)O)C(=O)N[C@@H](C)C(=O)N[C@@H](CCC(N)=O)C(=O)N[C@@H](CCCCN)C(=O)N1CCC[C@H]1C(=O)N[C@@H](Cc1ccc(O)cc1)C(=O)N[C@@H](CO)C(=O)NCC(=O)N[C@@H](CCCNC(=N)N)C(=O)N[C@@H](CCCCNC(=O)c1ccc2c(c1)C(=O)OC21c2ccc(O)cc2Oc2cc(O)ccc21)C(=O)O [t-PA-pep-1lac]	0.286	17					0.2	25	0.73	10.4	12.7	4.03	2.6	87.6	86.3	25.7	45.8	36.6
